Laboratory results taken from patent EP1433789A1, “Pyrrolopyrazines and their use as selective apoptosis inducers” (Aponetics AG, priority 2002, dated 2004).

Assays:
Jurkat [1] = assay: Hoechst 33342 nuclear staining (Table 3); type: cell-based, human; set-up: key: 0 relating to no activity; 1 relating to weak activity comprising less than 50% of the cells; score 2 relating to strong activity comprising more than 50% of the cells
Protocol: (§1) This assay is performed in 96 well tissue culture plates. Appropriate number of cells (adherent cells: 3 - 5*10^3, suspension cells: 8 - 10*10^3) are being seeded out in 80 µl complete medium. Adherent cells are incubated for 24 h for proper spreading out before addition of test compounds while suspension cells are immediately treated with test compounds after seeding out. The test compounds are added in 20 µl complete medium containing max 5% DMSO. The final compound concentrations in the assays are 10 µM, 3 µM,1 µM and 0.3 µM, respectively. After 24 h or 48 h incubation at culture conditions, 10 µl medium containing Hoechst 33342 dye (Sigma B-2261) at 2-5 µg/ml are added to each well. The assay plates are then further incubated for 30 minutes and subsequently analyzed with a standard inverted fluorescence microscope. The readout allows the determination of the fraction of apoptotic nuclei as well as other morphological criteria specific for apoptosis as a function of the treatment. The following scores are used: 0 relating to no activity, 1 relating to weak activity comprising less than 50% of the cells and score 2 relating to strong activity comprising more than 50% of the cells.

KB = assay: Hoechst 33342 nuclear staining (Table 3); type: cell-based, human; set-up: key: 0 relating to no activity; 1 relating to weak activity comprising less than 50% of the cells; score 2 relating to strong activity comprising more than 50% of the cells
Protocol: as §1

K562 = assay: Hoechst 33342 nuclear staining (Table 3); type: cell-based, human; set-up: key: 0 relating to no activity; 1 relating to weak activity comprising less than 50% of the cells; score 2 relating to strong activity comprising more than 50% of the cells
Protocol: as §1

HeLa [2] = assay: Hoechst 33342 nuclear staining (Table 3); type: cell-based, human; set-up: key: 0 relating to no activity; 1 relating to weak activity comprising less than 50% of the cells; score 2 relating to strong activity comprising more than 50% of the cells
Protocol: as §1

A20 [3] = assay: AnnexinV/7-AAD staining; type: cell-based, mouse; details: A20, 10 µM, 24 h treatment
Protocol: (§2) Adherent cells (1 - 2*10^5) are 24 h prior to compound treatment seeded into 24 well tissue culture plates. Suspension cells are pipetted into P-tubes immediately before treatment. Test compounds are added leading to a final concentrations of 10 µM. After 24 h treatment cells are harvested (in case of adherent cells by trypsinization) and transferred to FACS tubes (BD Biosciences). After centrifugation and removal of the supernatant, 100 µl complete medium containing AnnexinV-GST (10 µg) is added, mixed and incubated at 4°C for 30 minutes. Subsequently, the cells are washed once with medium and incubated with 100 µl anti-GST Alexa 488 (Molecular Probes A-11131) in medium diluted 1:500 for 30 minutes at 4°C. Then, cells are washed once and stained with 1 µg/ml 7-aminoactinomycin D (7-AAD) (Molecular Probes A-1310) in 250 µl medium and analyzed on the FACSCalibur™. AnnexinV is measured in FL1 whereas 7-AAD is measured in FL3. In Table 5 the percentage of positively stained cells after treatment with the respective compounds are indicated. The following scores are used: Score 0 relates to less than 10%, score 1 relates to more than 10% but less than 50% and score 2 relates to more than 50% positivity.

Jurkat [4] = assay: AnnexinV/7-AAD staining; type: cell-based, human; details: 10 µM, 24 h treatment
Protocol: as §2

Ramos [5] = assay: AnnexinV/7-AAD staining; type: cell-based, human; details: 10 µM, 24 h treatment
Protocol: as §2

HeLa [6] = assay: AnnexinV/7-AAD staining; type: cell-based, human; details: 10 µM, 24 h treatment
Protocol: as §2

A20 [7] = assay: Hoechst 33342 nuclear staining (Table 3); type: cell-based, mouse; set-up: key: 0 relating to no activity; 1 relating to weak activity comprising less than 50% of the cells; score 2 relating to strong activity comprising more than 50% of the cells
Protocol: as §1

Ramos [8] = assay: Hoechst 33342 nuclear staining (Table 3); type: cell-based, human; set-up: key: 0 relating to no activity; 1 relating to weak activity comprising less than 50% of the cells; score 2 relating to strong activity comprising more than 50% of the cells; details: 24h
Protocol: as §1

CC1(C)Cc2ccccc2-c2cc3nc4ccccc4nc3n21 [No. 1, 6,6-Dimethyl-5,6-dihydro-6a,7,12-triaza-dibenzo[a,h]fluorene]
Hoechst 33342 nuclear staining (Jurkat [1]; 24h, conc 0.3 (µM)): 1 (1 relating to weak activity comprising less than 50% of the cells)
Hoechst 33342 nuclear staining (Jurkat [1]; 24h, conc 1 (µM)): 1 (1 relating to weak activity comprising less than 50% of the cells)
Hoechst 33342 nuclear staining (Jurkat [1]; 24h, conc 3 (µM)): 2 (score 2 relating to strong activity comprising more than 50% of the cells)
Hoechst 33342 nuclear staining (Jurkat [1]; 24h, conc 10 (µM)): 2 (score 2 relating to strong activity comprising more than 50% of the cells)
Hoechst 33342 nuclear staining (Jurkat [1]; 48h, conc 0.3 (µM)): 2 (score 2 relating to strong activity comprising more than 50% of the cells)
Hoechst 33342 nuclear staining (Jurkat [1]; 48h, conc 1 (µM)): 2 (score 2 relating to strong activity comprising more than 50% of the cells)
Hoechst 33342 nuclear staining (Jurkat [1]; 48h, conc 3 (µM)): 2 (score 2 relating to strong activity comprising more than 50% of the cells)
Hoechst 33342 nuclear staining (Jurkat [1]; 48h, conc 10 (µM)): 2 (score 2 relating to strong activity comprising more than 50% of the cells)
Hoechst 33342 nuclear staining (KB; 24h, conc 0.3 (µM)): 0
Hoechst 33342 nuclear staining (KB; 24h, conc 1 (µM)): 0
Hoechst 33342 nuclear staining (KB; 24h, conc 3 (µM)): 0
Hoechst 33342 nuclear staining (KB; 24h, conc 10 (µM)): 0
Hoechst 33342 nuclear staining (KB; 48h, conc 0.3 (µM)): 0
Hoechst 33342 nuclear staining (KB; 48h, conc 1 (µM)): 0
Hoechst 33342 nuclear staining (KB; 48h, conc 3 (µM)): 0
Hoechst 33342 nuclear staining (KB; 48h, conc 10 (µM)): 0
Hoechst 33342 nuclear staining (K562; K562, 24h, conc 0.3 (µM)): 0
Hoechst 33342 nuclear staining (K562; K562, 24h, conc 1 (µM)): 0
Hoechst 33342 nuclear staining (K562; K562, 24h, conc 3 (µM)): 0
Hoechst 33342 nuclear staining (K562; K562, 48h, conc 0.3 (µM)): 0
Hoechst 33342 nuclear staining (K562; K562, 48h, conc 1 (µM)): 1 (1 relating to weak activity comprising less than 50% of the cells)
Hoechst 33342 nuclear staining (K562; K562, 48h, conc 3 (µM)): 2 (score 2 relating to strong activity comprising more than 50% of the cells)
Hoechst 33342 nuclear staining (K562; K562, 48h, conc 10 (µM)): 2 (score 2 relating to strong activity comprising more than 50% of the cells)
Hoechst 33342 nuclear staining (HeLa [2]; 24h, conc 0.3 (µM)): 0
Hoechst 33342 nuclear staining (HeLa [2]; 24h, conc 1 (µM)): 0
Hoechst 33342 nuclear staining (HeLa [2]; 24h, conc 3 (µM)): 0
Hoechst 33342 nuclear staining (HeLa [2]; 24h, conc 10 (µM)): 0
Hoechst 33342 nuclear staining (HeLa [2]; 48h, conc 0.3 (µM)): 0
Hoechst 33342 nuclear staining (HeLa [2]; 48h, conc 1 (µM)): 2 (score 2 relating to strong activity comprising more than 50% of the cells)
Hoechst 33342 nuclear staining (HeLa [2]; 48h, conc 3 (µM)): 2 (score 2 relating to strong activity comprising more than 50% of the cells)
Hoechst 33342 nuclear staining (HeLa [2]; 48h, conc 10 (µM)): 2 (score 2 relating to strong activity comprising more than 50% of the cells)
percentage of positively stained cells (AnnexinV/7-AAD staining) (A20 [3]): 0 (Score 0 relates to less than 10%)
percentage of positively stained cells (AnnexinV/7-AAD staining) (Jurkat [4]): 0 (Score 0 relates to less than 10%)
percentage of positively stained cells (AnnexinV/7-AAD staining) (Ramos [5]): 1 (score 1 relates to more than 10% but less than 50%)
percentage of positively stained cells (AnnexinV/7-AAD staining) (HeLa [6]): 1 (score 1 relates to more than 10% but less than 50%)

CC1(C)Cc2ccccc2-c2c(C=O)c3nc4ccccc4nc3n21 [No. 3, 6,6-Dimethyl-5,6-dihydro-6a,7,12-triaza-dibenzo[a,h]fluorene-13-carbaldehyde]
Hoechst 33342 nuclear staining (A20 [7]; A20, 24h, conc 0.3 (µM)): 0
Hoechst 33342 nuclear staining (A20 [7]; A20, 24h, conc 1 (µM)): 0
Hoechst 33342 nuclear staining (A20 [7]; A20, 24h, conc 3 (µM)): 0
Hoechst 33342 nuclear staining (A20 [7]; A20, 24h, conc 10 (µM)): 0
Hoechst 33342 nuclear staining (A20 [7]; A20, 48h, conc 0.3 (µM)): 0
Hoechst 33342 nuclear staining (A20 [7]; A20, 48h, conc 1 (µM)): 0
Hoechst 33342 nuclear staining (A20 [7]; A20, 48h, conc 3 (µM)): 0
Hoechst 33342 nuclear staining (A20 [7]; A20, 48h, conc 10 (µM)): 0
Hoechst 33342 nuclear staining (Jurkat [1]; 24h, conc 0.3 (µM)): 0
Hoechst 33342 nuclear staining (Jurkat [1]; 24h, conc 1 (µM)): 0
Hoechst 33342 nuclear staining (Jurkat [1]; 24h, conc 3 (µM)): 0
Hoechst 33342 nuclear staining (Jurkat [1]; 24h, conc 10 (µM)): 0
Hoechst 33342 nuclear staining (Jurkat [1]; 48h, conc 0.3 (µM)): 0
Hoechst 33342 nuclear staining (Jurkat [1]; 48h, conc 1 (µM)): 0
Hoechst 33342 nuclear staining (Jurkat [1]; 48h, conc 3 (µM)): 0
Hoechst 33342 nuclear staining (Jurkat [1]; 48h, conc 10 (µM)): 2 (score 2 relating to strong activity comprising more than 50% of the cells)
Hoechst 33342 nuclear staining (Ramos [8]; conc 0.3 (µM)): 0
Hoechst 33342 nuclear staining (Ramos [8]; conc 1 (µM)): 0
Hoechst 33342 nuclear staining (Ramos [8]; conc 3 (µM)): 0
Hoechst 33342 nuclear staining (Ramos [8]; conc 10 (µM)): 0
Hoechst 33342 nuclear staining (K562; K562, 24h, conc 0.3 (µM)): 0
Hoechst 33342 nuclear staining (K562; K562, 24h, conc 1 (µM)): 0
Hoechst 33342 nuclear staining (K562; K562, 24h, conc 3 (µM)): 0
Hoechst 33342 nuclear staining (K562; K562, 24h, conc 10 (µM)): 0
Hoechst 33342 nuclear staining (K562; K562, 48h, conc 0.3 (µM)): 0
Hoechst 33342 nuclear staining (K562; K562, 48h, conc 1 (µM)): 0
Hoechst 33342 nuclear staining (K562; K562, 48h, conc 3 (µM)): 1 (1 relating to weak activity comprising less than 50% of the cells)
Hoechst 33342 nuclear staining (K562; K562, 48h, conc 10 (µM)): 1 (1 relating to weak activity comprising less than 50% of the cells)
Hoechst 33342 nuclear staining (HeLa [2]; 24h, conc 0.3 (µM)): 0
Hoechst 33342 nuclear staining (HeLa [2]; 24h, conc 1 (µM)): 0
Hoechst 33342 nuclear staining (HeLa [2]; 24h, conc 3 (µM)): 0
Hoechst 33342 nuclear staining (HeLa [2]; 24h, conc 10 (µM)): 0
Hoechst 33342 nuclear staining (HeLa [2]; 48h, conc 0.3 (µM)): 0
Hoechst 33342 nuclear staining (HeLa [2]; 48h, conc 1 (µM)): 0
Hoechst 33342 nuclear staining (HeLa [2]; 48h, conc 3 (µM)): 0
Hoechst 33342 nuclear staining (HeLa [2]; 48h, conc 10 (µM)): 1 (1 relating to weak activity comprising less than 50% of the cells)
percentage of positively stained cells (AnnexinV/7-AAD staining) (A20 [3]): 1 (score 1 relates to more than 10% but less than 50%)
percentage of positively stained cells (AnnexinV/7-AAD staining) (Jurkat [4]): 2 (score 2 relates to more than 50% positivity)
percentage of positively stained cells (AnnexinV/7-AAD staining) (Ramos [5]): 2 (score 2 relates to more than 50% positivity)
percentage of positively stained cells (AnnexinV/7-AAD staining) (HeLa [6]): 1 (score 1 relates to more than 10% but less than 50%)
